Test results taken from US9809602B2, “Compounds for treating viral infections” (INSTITUT PASTEUR KOREA, priority 2014, dated 2017).

Tested on: genotype 1/2 chimeric cell culture derived HCV (HCVcc)
Experiment: Genotype 1/2 chimeric HCVcc assay (nano-luciferase, HCV replication)
Type: cell-based
Details: Hepatitis C virus
Procedure, shortened: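 EC50 (replication, nano-luciferase) and CC50 (viability, cellular ATP) were determined by non-linear regression 72 h after infection with a reporter HCVcc chimera carrying genotype 1a structural and 2a JFH-1 non-structural proteins. Compound was applied to Huh-7.5 cells 2 h before inoculation.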

SMILES: CC(C)(C)OC(=O)N1CCC(C2CCN(CCCNC(=O)c3ccc(Oc4ccccc4)cc3)CC2)CC1 [Compound 1073]
- EC50: 0.1 to 1 µM

SMILES: O=C(NCCCN1CCC(N2CCCCC2)CC1)c1ccc2oc3ccccc3c2c1 [Compound 1074]
- EC50: 1 to 10 µM

SMILES: O=C(Nc1cccc(CN2CCC(N3CCCCC3)CC2)c1)c1ccc(Oc2ccccc2)cc1 [Compound 1075]
- EC50: 0.1 to 1 µM

SMILES: O=C(NC/C=C/CN1CCC(N2CCCCC2)CC1)c1ccc(Oc2ccccc2)cc1 [Compound 1076]
- EC50: 0.1 to 1 µM

SMILES: O=C(NCCOCCN1CCC(N2CCCCC2)CC1)c1ccc(Oc2ccccc2)cc1 [Compound 1077]
- EC50: 1 to 10 µM

SMILES: O=C(CCCN1CCC(N2CCCCC2)CC1)Nc1ccc(Oc2ccc(C(F)(F)F)cc2)cc1 [Compound 1078]
- EC50: 0.1 to 1 µM

SMILES: O=C(NCCCN1CCC(NC2CCCCC2)CC1)c1ccc(Oc2ccccc2)cc1 [Compound 1079]
- EC50: 0.1 to 1 µM

SMILES: O=C(NCCCN1CCC(N2CCCCC2)CC1)c1ccc(-c2ccc(C(F)(F)F)cc2)nc1 [Compound 1080]
- EC50: 0.1 to 1 µM

SMILES: O=C(NCCCN1CCC(N2CCCCC2)CC1)c1ccc(-c2ccc(C(F)(F)F)cc2)s1 [Compound 1081]
- EC50: 0.1 to 1 µM

SMILES: O=C(NCCCN1CCC(N2CCCCC2)CC1)c1cc(-c2ccc(C(F)(F)F)cc2)cs1 [Compound 1082]
- EC50: 0.1 to 1 µM

SMILES: O=C(NCCCN1CCC(N2CCCCC2)CC1)c1ccc(-c2ccc(C(F)(F)F)cc2)o1 [Compound 1083]
- EC50: 0.1 to 1 µM

SMILES: O=C(NCCCN1CCC(N2CCCCC2)C1)c1ccc(Oc2ccccc2)cc1 (stereo not shown) [Compound 1084]
- EC50: > 10 µM

SMILES: O=C(NCCCN1CCC(N2CCCCC2)CC1)c1ccc(-c2ccc(C(F)(F)F)cc2)c(Cl)c1 [Compound 1085]
- EC50: 0.1 to 1 µM

SMILES: O=C(CCCN1CCC(N2CCCCC2)CC1)Nc1ccc(-c2ccc(C(F)(F)F)cc2)cc1 [Compound 1086]
- EC50: 0.1 to 1 µM

SMILES: O=C(NCCCCCN1CCC(N2CCCCC2)CC1)c1ccc(Oc2ccccc2)cc1 [Compound 1087]
- EC50: 0.1 to 1 µM

SMILES: O=C(NCCCCCCN1CCC(N2CCCCC2)CC1)c1ccc(Oc2ccccc2)cc1 [Compound 1088]
- EC50: 0.1 to 1 µM

SMILES: O=C(c1ccc(Oc2ccccc2)cc1)N1CCC(CN2CCC(N3CCCCC3)CC2)C1 (stereo not shown) [Compound 1089]
- EC50: 1 to 10 µM

SMILES: O=S(=O)(NCCCN1CCC(N2CCCCC2)CC1)c1ccc(-c2ccccc2)cc1 [Compound 1090]
- EC50: 0.1 to 1 µM

SMILES: O=S(=O)(NCCCCN1CCC(N2CCCCC2)CC1)c1ccc(-c2ccccc2)cc1 [Compound 1091]
- EC50: 0.1 to 1 µM

SMILES: O=S(=O)(NCCCN1CCC(N2CCCCC2)CC1)c1ccc(-c2ccc(OC(F)(F)F)cc2)cc1 [Compound 1092]
- EC50: 0.1 to 1 µM

SMILES: O=S(=O)(NCCCN1CCC(N2CCCCC2)CC1)c1ccc(-c2ccc(C(F)(F)F)cc2)cc1 [Compound 1093]
- EC50: 0.1 to 1 µM

SMILES: O=S(=O)(NCCCN1CCC(N2CCCCC2)CC1)c1ccc(Oc2ccc(C(F)(F)F)cc2)cc1 [Compound 1094]
- EC50: 0.1 to 1 µM

SMILES: O=S(=O)(NCCCCN1CCC(N2CCCCC2)CC1)c1ccc(-c2ccc(C(F)(F)F)cc2)cc1 [Compound 1095]
- EC50: 0.1 to 1 µM

SMILES: O=S(=O)(NCCCN1CCC(N2CCCCC2)CC1)c1ccc(-c2ccc(F)cc2)cc1 [Compound 1096]
- EC50: 0.1 to 1 µM

SMILES: COc1ccc(-c2ccc(S(=O)(=O)NCCCN3CCC(N4CCCCC4)CC3)cc2)cc1 [Compound 1097]
- EC50: 0.1 to 1 µM

SMILES: Cc1ccc(-c2ccc(S(=O)(=O)NCCCN3CCC(N4CCCCC4)CC3)cc2)cc1 [Compound 1098]
- EC50: 0.1 to 1 µM

SMILES: O=S(=O)(NCCCN1CCC(N2CCCCC2)CC1)c1ccc(-c2ccc(Cl)cc2)cc1 [Compound 1099]
- EC50: 0.1 to 1 µM

SMILES: O=C(NCCCN1CCC(N2CCCCC2)CC1)c1ccc(-c2ccc(C(F)(F)F)cn2)cc1 [Compound 1100]
- EC50: 0.1 to 1 µM

SMILES: O=C(NCCCN1CCC(N2CCCCC2)CC1)c1ccc(-c2ccc(C(F)(F)F)nc2)cc1 [Compound 1101]
- EC50: 0.1 to 1 µM

SMILES: O=C(NCCCN1CCC(N2CCCCC2)CC1)c1ccc(-c2ccc(C(F)(F)F)cc2)cn1 [Compound 1102]
- EC50: 0.1 to 1 µM

SMILES: Cc1cc(NCCCN2CCC(N3CCCCC3)CC2)n2nc(-c3ccccc3)cc2n1 [Compound 1103]
- EC50: 1 to 10 µM

SMILES: O=C(NCCCN1CCC(N2CCCCC2)CC1)c1ccc(-c2ccc(C(F)(F)F)cc2)cc1C(F)(F)F [Compound 1104]
- EC50: 0.1 to 1 µM

SMILES: O=C(NCCCN1CCC(N2CCCCC2)CC1)c1ccc(-c2ccc(C(F)(F)F)cc2)c(C(F)(F)F)c1 [Compound 1105]
- EC50: 0.1 to 1 µM

SMILES: O=C(NCCCN1CCC(N2CCCCC2)CC1)c1c(F)cc(-c2ccc(C(F)(F)F)cc2)cc1F [Compound 1106]
- EC50: 0.1 to 1 µM

SMILES: O=C(NCCCN1CCC(N2CCCCC2)CC1)c1cccc(Oc2cccc(C(F)(F)F)c2)c1 [Compound 1107]
- EC50: 0.1 to 1 µM

SMILES: O=C(NCCCN1CCC(N2CCCCC2)CC1)c1ccc(Oc2cccc(C(F)(F)F)c2)cc1 [Compound 1108]
- EC50: 0.1 to 1 µM

SMILES: O=C(NCCCN1CCC(N2CCCCC2)CC1)c1ccc(Oc2ccc(Cl)cc2)cc1 [Compound 1109]
- EC50: 1 to 10 µM

SMILES: CN(C)c1ccc(Oc2ccc(C(=O)NCCCN3CCC(N4CCCCC4)CC3)cc2)cc1 [Compound 1110]
- EC50: 0.1 to 1 µM

SMILES: O=C(NCCCN1CCC(N2CCCCC2)CC1)c1ccc(Oc2ccc(C(F)(F)F)cc2)cc1 [Compound 1111]
- EC50: 0.1 to 1 µM

SMILES: O=C(NCCCN1CCC(N2CCCCC2)CC1)c1ccc(-c2ccc(C(F)(F)F)cc2)cc1Cl [Compound 1112]
- EC50: 0.1 to 1 µM

SMILES: O=C(CCCN1CCC(N2CCCCC2)CC1)Nc1ccc(-c2ccc(C(F)(F)F)cc2)c(F)c1 [Compound 1113]
- EC50: 0.1 to 1 µM

SMILES: O=C(CCCN1CCC(N2CCCCC2)CC1)Nc1ccc(-c2ccc(C(F)(F)F)cc2)cc1F [Compound 1114]
- EC50: 0.1 to 1 µM

SMILES: COc1cc(C(=O)NCCCN2CCC(N3CCCCC3)CC2)ccc1-c1ccc(C(F)(F)F)cc1 [Compound 1115]
- EC50: 0.1 to 1 µM

SMILES: O=C(CCCN1CCC(N2CCCCC2)CC1)Nc1ccc(-c2ccc(C(F)(F)F)cc2)nc1 [Compound 1116]
- EC50: 0.1 to 1 µM

SMILES: O=C(NC/C=C/CN1CCC(N2CCCCC2)CC1)c1ccc(-c2ccc(C(F)(F)F)cc2)cc1 [Compound 1117]
- EC50: 0.1 to 1 µM

SMILES: O=C(NCCCN1CCC(N2CCCCC2)CC1)Nc1ccc(-c2ccc(C(F)(F)F)cc2)cc1 [Compound 1118]
- EC50: 0.1 to 1 µM

SMILES: O=C(NCCCN1CCC(N2CCCCC2)CC1)c1ccc(-c2ccc(OC(F)(F)F)cc2)cc1 [Compound 1119]
- EC50: 0.1 to 1 µM

SMILES: CN(C)C(=O)c1ccc(-c2ccc(C(=O)NCCCN3CCC(N4CCCCC4)CC3)cc2)cc1 [Compound 1120]
- EC50: > 10 µM

SMILES: O=C(NCCCN1CCC(N2CCCCC2)CC1)c1ccc(-c2ccc3cc[nH]c3c2)cc1 [Compound 1121]
- EC50: 0.1 to 1 µM

SMILES: O=C(NCCCN1CCC(N2CCCCC2)CC1)c1ccc(-c2ccc([N+](=O)[O-])cc2)cc1 [Compound 1122]
- EC50: 0.1 to 1 µM

SMILES: O=C(NCCCN1CCC(N2CCCCC2)CC1)c1ccc(-c2ccc(N3CCOCC3)cc2)cc1 [Compound 1123]
- EC50: 0.1 to 1 µM

SMILES: CC(C)(C)c1ccc(-c2ccc(C(=O)NCCCN3CCC(N4CCCCC4)CC3)cc2)cc1 [Compound 1124]
- EC50: 0.1 to 1 µM

SMILES: CN(C)c1ccc(-c2ccc(C(=O)NCCCN3CCC(N4CCCCC4)CC3)cc2)cc1 [Compound 1125]
- EC50: 0.1 to 1 µM

SMILES: O=C(NCCCN1CCC(N2CCCCC2)CC1)c1ccc(-c2ccc3occc3c2)cc1 [Compound 1126]
- EC50: 0.1 to 1 µM

SMILES: O=C(NCCCN1CCC(N2CCCCC2)CC1)c1ccc(-c2ccc(O)cc2)cc1 [Compound 1127]
- EC50: 1 to 10 µM

SMILES: NS(=O)(=O)c1ccc(-c2ccc(C(=O)NCCCN3CCC(N4CCCCC4)CC3)cc2)cc1 [Compound 1128]
- EC50: > 10 µM

SMILES: NC(=O)c1ccc(-c2ccc(C(=O)NCCCN3CCC(N4CCCCC4)CC3)cc2)cc1 [Compound 1129]
- EC50: > 10 µM

SMILES: O=C(NCCCN1CCC(N2CCCCC2)CC1)c1ccc(-c2ccc3c(c2)OCO3)cc1 [Compound 1130]
- EC50: 0.1 to 1 µM

SMILES: COc1ccc(-c2ccc(C(=O)NCCCN3CCC(N4CCCCC4)CC3)cc2)c(F)c1 [Compound 1131]
- EC50: 0.1 to 1 µM

SMILES: O=C(NCCCN1CCC(N2CCCCC2)CC1)c1ccc(-c2ccc(F)cc2Cl)cc1 [Compound 1132]
- EC50: 0.1 to 1 µM

SMILES: O=C(NCCCN1CCC(N2CCCCC2)CC1)c1ccc(-c2ccc(F)cc2C(F)(F)F)cc1 [Compound 1133]
- EC50: 0.1 to 1 µM

SMILES: O=C(NCCCN1CCC(N2CCCCC2)CC1)c1ccc(-c2ccc(F)cc2F)cc1 [Compound 1134]
- EC50: 0.1 to 1 µM

SMILES: Cc1ccc(-c2ccc(C(=O)NCCCN3CCC(N4CCCCC4)CC3)cc2)c(F)c1 [Compound 1135]
- EC50: 0.1 to 1 µM

SMILES: O=C(NCCCN1CCC(N2CCCCC2)CC1)c1ccc(-c2ccc(Cl)cc2C(F)(F)F)cc1 [Compound 1136]
- EC50: 0.1 to 1 µM

SMILES: O=C(NCCCN1CCC(N2CCCCC2)CC1)c1ccc(-c2ccc(C(F)(F)F)s2)cc1 [Compound 1137]
- EC50: 0.1 to 1 µM

SMILES: O=C(NCCCN1CCC(N2CCCCC2)CC1)c1ccc(-c2ccc(CN3CCOCC3)cc2)cc1 [Compound 1138]
- EC50: 1 to 10 µM

SMILES: CC(C)(C)OC(=O)c1ccc(-c2ccc(C(=O)NCCCN3CCC(N4CCCCC4)CC3)cc2)cc1 [Compound 1139]
- EC50: 0.1 to 1 µM

SMILES: CC(=O)Nc1ccc(-c2ccc(C(=O)NCCCN3CCC(N4CCCCC4)CC3)cc2)cc1 [Compound 1140]
- EC50: > 10 µM

SMILES: O=C(NCCCN1CCC(N2CCCCC2)CC1)c1ccc(-c2cccc(Cl)c2)cc1 [Compound 1141]
- EC50: 0.1 to 1 µM

SMILES: O=C(NCCCN1CCC(N2CCCCC2)CC1)c1ccc(-c2cccc(N3CCOCC3)c2)cc1 [Compound 1142]
- EC50: 1 to 10 µM

SMILES: O=C(NCCCN1CCC(N2CCCCC2)CC1)c1ccc(-c2cccc(CN3CCOCC3)c2)cc1 [Compound 1143]
- EC50: 1 to 10 µM

SMILES: O=C(NCCCN1CCC(N2CCCCC2)CC1)c1ccc(-c2ccc(S(=O)(=O)N3CCOCC3)cc2)cc1 [Compound 1144]
- EC50: 1 to 10 µM

SMILES: O=C(NCCCN1CCC(N2CCCCC2)CC1)c1ccc(-c2cccc(OC(F)(F)F)c2)cc1 [Compound 1145]
- EC50: 0.1 to 1 µM

SMILES: O=C(NCCCN1CCC(N2CCCCC2)CC1)c1ccc(-c2ccccc2Cl)cc1 [Compound 1146]
- EC50: 0.1 to 1 µM

SMILES: O=C(NCCCN1CCC(N2CCCCC2)CC1)c1ccc(-c2cccc([N+](=O)[O-])c2)cc1 [Compound 1147]
- EC50: 0.1 to 1 µM

SMILES: O=C(NCCCN1CCC(N2CCCCC2)CC1)c1ccc(-c2ccc(CO)cc2)cc1 [Compound 1148]
- EC50: > 10 µM
